System: U87 cells
Test: Antibody staining, BrdU and senescence assays in U87 cells
Format: cell-based, human
Details: U87, 6 days
Description: Antibody Staining, BrdU and Senescence Assays. NG108-15 cells were plated on PEI and Matrigel coated plates at 15,000 or 30,000 cells/mL, U87 cells at 10,000 cells/mL and grown in imaging media for 6 days with drug treatment. Fresh media was added every 2 days. On day 6, cells were fixed with 4% formaldehyde in PBS for 30 minutes for all antibody staining, except for BrdU which was fixed for 15 minutes, and for the senescence assay which was fixed for 20 min using the Senescence Beta-Galactosidase Staining Kit (9860, CellSignaling) and thereafter stained according to manufacturer's protocol. After fixing, cells were washed twice with PBS, and were permeabilized in PBS with 0.3% Triton-X for 15 min then washed again twice with PBS. The cells for the BrdU assay were additionally treated with 1N HCl for 10 min on ice, followed by a treatment with 2N HCl for 50 min at room temp. Cells were then blocked with standard blocking buffer comprised of TBS containing 10% goat serum, 0.1% BSA, and with 0.05% Tween 20 or without detergent for antibodies against phosphorylated proteins or monoclonal antibodies except for Anti-YAP and Anti-BrdU staining, which were done according to manufacturer's protocol. […] Cells were imaged with an EVOS M7000 system, with at least 50% of each well in a 96 well plate imaged and analyzed using a CellProfiler pipeline for measuring integrated intensity, mean intensity, or nuclear to cytoplasmic ratio of mean intensities.

Question: Which results are given for `COc1ccnc(C[S+]([O-])c2nc3ccc(OC(F)F)cc3[nH]2)c1OC` (stereo not drawn) [Pantoprazole, pantoprazole]?
Answer: NFM and NSE: increased; YAP nuclear to cytoplasmic ratio: not to have a significant effect; astrocytic differentiation markers: increased

Reference: patent publication US20250049747A1, “USE OF HYPERPOLARIZING AGENTS ALONE AND IN COMBINATION WITH OTHER THERAPEUTIC AGENTS FOR TREATING CANCERS INCLUDING GLIOBLASTOMA” (Trustees of Tufts College, priority 2021, published 2025)
